# How the values were obtained:
# Assay type in all cases: cell-based
# [1] = system: Serratia marcescens US 32; experiment: MIC by serial dilution in Iso-Sensitest Agar, S. marcescens US 32; conditions: US32, 24 h, overnight at 37° C.
# Description: (§1) Minimum Inhibitory Concentration (MIC) values of compounds of the invention against P. mirabilis C977, S. marcescens US 32, and P. aeruginosa K79961 were determined by serial dilution in Iso-Sensitest Agar (from Oxiod Ltd., Basinstoke, England). The plates were inoculated with […] colony forming units and incubated overnight at 37° C. The MIC values recorded in Table 1 were the lowest concentration of antibiotic to inhibit growth. Comparative data for sodium 7β[2-(3,4-diacetoxyphenyl)-2-[(4-ethyl-2,3-dioxopiperazin-1yl)carbonylamino]acetomido]-7α-formamido-3-[(2-methyl-1,3,4-thiadiazol-5yl)thiomethyl]ceph-3em-4-carboxylate (Compound A), disclosed in European Patent Application No. 82303821.1 (Publication No. 0 071 395) are also given.
# [2] = system: Pseudomonas aeruginosa K79961; experiment: MIC by serial dilution in Iso-Sensitest Agar, P. aeruginosa K79961; conditions: 24 h, overnight at 37° C.
# Description: as §1
# Proteus mirabilis C977 = experiment: MIC by serial dilution in Iso-Sensitest Agar, P. mirabilis C977; conditions: 24 h, overnight at 37° C.
# Description: as §1
SMILES,MIC [1] [µg/mL],MIC [2] [µg/mL],MIC (Proteus mirabilis C977) [µg/mL]
"CCN1CCN(C(=O)N[C@@H](C(=O)N[C@]2(NC=O)C(=O)N3C(C(=O)O)=C(CSc4nncs4)CS[C@@H]32)c2ccc(O)c(O)c2)C(=O)C1=O [Example 2, Sodium 7β-[D-2-(3,4-Dihydroxyphenyl)-2-[(4-ethyl-2,3-dioxopiperazin-1-yl)carbonylamino]acetamido]-7α-formamido-3-[(1,3,4-thiadiazol-2-yl)thiomethyl]ceph-3-em-4-carboxylate]",0.12,0.5,1
"CCN1CCN(C(=O)N[C@@H](C(=O)N[C@]2(NC=O)C(=O)N3C(C(=O)O)=C(CSc4nncs4)CS[C@@H]32)c2ccc(OC(C)=O)c(OC(C)=O)c2)C(=O)C1=O [Example 1, Sodium 7β-[D-2-(3,4-Diacetoxyphenyl)-2-[(4-ethyl-2,3-dioxopiperazin-1-yl)carbonylamino]acetamido]-7α-formamido-3-[(1,3,4-thiadiazol-2-yl)thiomethyl]ceph-3-em-4-carboxylate]",0.25,0.25,1
"CCN1CCN(C(=O)NC(C(=O)N[C@]2(NC=O)C(=O)N3C(C(=O)O)=C(CSc4nnc(C)s4)CS[C@@H]32)c2ccc(OC(C)=O)c(OC(C)=O)c2)C(=O)C1=O (stereo partly drawn) [Compound A, sodium 7β[2-(3,4-diacetoxyphenyl)-2-[(4-ethyl-2,3-dioxopiperazin-1yl)carbonylamino]acetomido]-7α-formamido-3-[(2-methyl-1,3,4-thiadiazol-5yl)thiomethyl]ceph-3em-4-carboxylate, reference compound]",1,2,4

# Reference: patent US4835150A, “Cephem compounds” (Beecham Group p.l.c., priority 1985, dated 1989)
